This passage reports Ki results from ChEMBL document CHEMBL1137557, “Geometry of GPPE binding to picrate and to the urokinase type plasminogen activator” (Bioorg Med Chem Lett, 2007).

For one assay, the target named is Trypsin (Homo sapiens, UniProt P07477+P07478+P35030). Put plainly: Inhibition of trypsin. It counts as protein assay.
Assay [1] concerns the target Urokinase-type plasminogen activator (Homo sapiens, UniProt P00749). Put plainly: Inhibition of uPA.
The target of assay [2] is Tissue-type plasminogen activator (Homo sapiens, UniProt P00750). Put plainly: Inhibition of tPA.
Tissue-type plasminogen activator, sequence (P00750 whole entry): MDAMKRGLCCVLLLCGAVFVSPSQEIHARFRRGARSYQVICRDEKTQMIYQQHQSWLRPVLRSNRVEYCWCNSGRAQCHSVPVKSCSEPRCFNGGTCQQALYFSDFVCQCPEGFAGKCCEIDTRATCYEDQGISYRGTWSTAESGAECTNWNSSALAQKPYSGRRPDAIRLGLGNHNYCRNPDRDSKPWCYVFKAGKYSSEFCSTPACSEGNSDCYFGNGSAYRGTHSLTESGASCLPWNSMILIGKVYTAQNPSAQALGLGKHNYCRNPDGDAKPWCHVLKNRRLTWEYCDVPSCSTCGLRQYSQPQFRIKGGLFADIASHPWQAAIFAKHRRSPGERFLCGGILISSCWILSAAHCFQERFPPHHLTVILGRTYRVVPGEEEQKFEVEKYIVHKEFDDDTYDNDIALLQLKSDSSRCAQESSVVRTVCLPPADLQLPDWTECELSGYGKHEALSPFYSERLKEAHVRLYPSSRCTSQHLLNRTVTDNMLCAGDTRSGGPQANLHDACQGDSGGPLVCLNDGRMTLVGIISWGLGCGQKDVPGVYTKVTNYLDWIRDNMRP

Take `N=C(N)Nc1ccc(CC(=O)c2ccccc2)cc1`: the Ki on Trypsin was 160 µM; in assay [1] it was 34 µM; in assay [2], more than 1000 µM.
